What was measured:
SLA-1*04:01 = assay: Peptide-MHC class I complex stability, scintillation proximity assay (SPA); design: species or system pig; conditions: biotinylated recombinant SLA heavy chain, 125I-β2m, excess unlabeled β2m, read every 40 min, number only if t1/2 ≥ 0.5 h, '-' = not stably binding
Summary of the method: (§1)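 Biotinylated recombinant heavy chains captured on streptavidin scintillation plates with 125I-β2m and peptide; signal read every 40 min under dissociating conditions with excess unlabeled β2m. Signal duration gives complex half-life; ≥ 0.5 h counted as stable binder.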

SLA-1*07:02 = assay: as above; design: species or system pig; conditions: biotinylated recombinant SLA heavy chain, 125I-β2m, excess unlabeled β2m, read every 40 min, number only if t1/2 ≥ 0.5 h, '-' = not stably binding
Summary of the method: as §1

SLA-2*04:01 = assay: as above; design: species or system pig; conditions: biotinylated recombinant SLA heavy chain, 125I-β2m, excess unlabeled β2m, read every 40 min, number only if t1/2 ≥ 0.5 h, '-' = not stably binding
Summary of the method: as §1

PBMCs = assay: In vitro peptide stimulation of porcine PBMCs, IFN-γ release assay (ELISA); assay type: cell-based, pig; design: key to T cell response: “x” indicates that a response was found to this given peptide at least once; conditions: PBMCs of immunized pigs, 2 × 10^5/well, 5 μg/ml peptide, 67.5–70.0 h, IFN-γ ELISA; response = 2-fold increase vs day -2 and at least 25 pg/ml IFN-γ, found at least once; SLA restriction not included
SLA-3*04:01 = assay: Peptide-MHC class I complex stability, scintillation proximity assay (SPA); design: species or system pig; conditions: biotinylated recombinant SLA heavy chain, 125I-β2m, excess unlabeled β2m, read every 40 min, number only if t1/2 ≥ 0.5 h, '-' = not stably binding
Summary of the method: as §1

SLA-2*05:02 = assay: as above; design: species or system pig; conditions: biotinylated recombinant SLA heavy chain, 125I-β2m, excess unlabeled β2m, read every 40 min, number only if t1/2 ≥ 0.5 h, '-' = not stably binding
Summary of the method: as §1

| Sequence | Binder (t1/2 ≥ 0.5 h): half-life of peptide-SLA-1*07:02 complex (SLA-1*07:02) | T cell response (PBMCs) | further results |
| --- | --- | --- | --- |
| KKDPSGPMTY [IDO51, porcine IDO-derived 9-11mer peptide] | – | – | Binder (t1/2 ≥ 0.5 h): half-life of peptide-SLA-1*04:01 complex (SLA-1*04:01): - (t1/2 (hours) is listed for each of the stably binding peptides (t1/2 ≥ 0.5 h)) |
| ALEVFHQIHEY [IDO4, porcine IDO-derived 9-11mer peptide] | – | – | Binder (t1/2 ≥ 0.5 h): half-life of peptide-SLA-1*04:01 complex (SLA-1*04:01): - (t1/2 (hours) is listed for each of the stably binding peptides (t1/2 ≥ 0.5 h)) |
| LPNPLEELPH [IDO69, porcine IDO-derived 9-11mer peptide] | - (t1/2 (hours) is listed for each of the stably binding peptides (t1/2 ≥ 0.5 h)) | – | – |
| YVPTVFENY [RhoC60, porcine RhoC-derived 9-11mer peptide] | - (t1/2 (hours) is listed for each of the stably binding peptides (t1/2 ≥ 0.5 h)) | – | Binder (t1/2 ≥ 0.5 h): half-life of peptide-SLA-2*04:01 complex (SLA-2*04:01): - (t1/2 (hours) is listed for each of the stably binding peptides (t1/2 ≥ 0.5 h)) |
| MALDWWSPM [IDO75, porcine IDO-derived 9-11mer peptide] | 0.5 h | x | Binder (t1/2 ≥ 0.5 h): half-life of peptide-SLA-3*04:01 complex (SLA-3*04:01): - (t1/2 (hours) is listed for each of the stably binding peptides (t1/2 ≥ 0.5 h)) |
| QAMVSLRNY [IDO100, porcine IDO-derived 9-11mer peptide] | - (t1/2 (hours) is listed for each of the stably binding peptides (t1/2 ≥ 0.5 h)) | – | – |
| HPYDAWIAIAK [IDO43, porcine IDO-derived 9-11mer peptide] | - (t1/2 (hours) is listed for each of the stably binding peptides (t1/2 ≥ 0.5 h)) | – | – |
| NSWKIFEEY [IDO89, porcine IDO-derived 9-11mer peptide] | - (t1/2 (hours) is listed for each of the stably binding peptides (t1/2 ≥ 0.5 h)) | – | Binder (t1/2 ≥ 0.5 h): half-life of peptide-SLA-2*04:01 complex (SLA-2*04:01): 0.7 h |
| KVLPRNIAI [IDO62, porcine IDO-derived 9-11mer peptide] | – | – | Binder (t1/2 ≥ 0.5 h): half-life of peptide-SLA-2*05:02 complex (SLA-2*05:02): - (t1/2 (hours) is listed for each of the stably binding peptides (t1/2 ≥ 0.5 h)); Binder (t1/2 ≥ 0.5 h): half-life of peptide-SLA-3*04:01 complex (SLA-3*04:01): - (t1/2 (hours) is listed for each of the stably binding peptides (t1/2 ≥ 0.5 h)) |
| MPPAHRNFLH [IDO77, porcine IDO-derived 9-11mer peptide] | - (t1/2 (hours) is listed for each of the stably binding peptides (t1/2 ≥ 0.5 h)) | – | – |
| YHLQIVTKY [IDO134, porcine IDO-derived 9-11mer peptide] | - (t1/2 (hours) is listed for each of the stably binding peptides (t1/2 ≥ 0.5 h)) | – | Binder (t1/2 ≥ 0.5 h): half-life of peptide-SLA-2*04:01 complex (SLA-2*04:01): - (t1/2 (hours) is listed for each of the stably binding peptides (t1/2 ≥ 0.5 h)) |
| HLVLGYITMAY [IDO41, porcine IDO-derived 9-11mer peptide] | 0.5 h | – | – |
| KLFFNVLRIY [IDO53, porcine IDO-derived 9-11mer peptide] | - (t1/2 (hours) is listed for each of the stably binding peptides (t1/2 ≥ 0.5 h)) | – | Binder (t1/2 ≥ 0.5 h): half-life of peptide-SLA-3*04:01 complex (SLA-3*04:01): - (t1/2 (hours) is listed for each of the stably binding peptides (t1/2 ≥ 0.5 h)) |
| PLLSEGLLY [IDO95, porcine IDO-derived 9-11mer peptide] | 0.7 h | – | – |
| MQRLAHLVLGY [IDO79, porcine IDO-derived 9-11mer peptide] | - (t1/2 (hours) is listed for each of the stably binding peptides (t1/2 ≥ 0.5 h)) | – | Binder (t1/2 ≥ 0.5 h): half-life of peptide-SLA-3*04:01 complex (SLA-3*04:01): - (t1/2 (hours) is listed for each of the stably binding peptides (t1/2 ≥ 0.5 h)); Binder (t1/2 ≥ 0.5 h): half-life of peptide-SLA-2*04:01 complex (SLA-2*04:01): - (t1/2 (hours) is listed for each of the stably binding peptides (t1/2 ≥ 0.5 h)) |
| CPNVPIILV [RhoC5, porcine RhoC-derived 9-11mer peptide] | 0.7 h | x | – |
| SPMDNSWKIF [IDO120, porcine IDO-derived 9-11mer peptide] | 2.6 h | x | – |
| PPAHRNFLH [IDO97, porcine IDO-derived 9-11mer peptide] | 1.1 h | x | – |
| VPSGSAAGF [IDO128, porcine IDO-derived 9-11mer peptide] | - (t1/2 (hours) is listed for each of the stably binding peptides (t1/2 ≥ 0.5 h)) | – | Binder (t1/2 ≥ 0.5 h): half-life of peptide-SLA-2*04:01 complex (SLA-2*04:01): - (t1/2 (hours) is listed for each of the stably binding peptides (t1/2 ≥ 0.5 h)) |
| EVFHQIHEY [IDO21, porcine IDO-derived 9-11mer peptide] | 10.1 h | x | Binder (t1/2 ≥ 0.5 h): half-life of peptide-SLA-2*04:01 complex (SLA-2*04:01): 23.8 h |
| SPMDNSWKI [IDO119, porcine IDO-derived 9-11mer peptide] | 1.9 h | x | – |

| Sequence | Binder (t1/2 ≥ 0.5 h): half-life of peptide-SLA-1*07:02 complex (SLA-1*07:02) | T cell response (PBMCs) | further results |
| --- | --- | --- | --- |
| KGFFLVSLL [IDO49, porcine IDO-derived 9-11mer peptide] | – | – | Binder (t1/2 ≥ 0.5 h): half-life of peptide-SLA-2*05:02 complex (SLA-2*05:02): - (t1/2 (hours) is listed for each of the stably binding peptides (t1/2 ≥ 0.5 h)); Binder (t1/2 ≥ 0.5 h): half-life of peptide-SLA-3*04:01 complex (SLA-3*04:01): - (t1/2 (hours) is listed for each of the stably binding peptides (t1/2 ≥ 0.5 h)) |
| LGLPPILVY [IDO65, porcine IDO-derived 9-11mer peptide] | - (t1/2 (hours) is listed for each of the stably binding peptides (t1/2 ≥ 0.5 h)) | – | Binder (t1/2 ≥ 0.5 h): half-life of peptide-SLA-2*04:01 complex (SLA-2*04:01): - (t1/2 (hours) is listed for each of the stably binding peptides (t1/2 ≥ 0.5 h)) |
| KLGLPPILVY [IDO55, porcine IDO-derived 9-11mer peptide] | - (t1/2 (hours) is listed for each of the stably binding peptides (t1/2 ≥ 0.5 h)) | – | – |
| HPYDAWIAI [IDO42, porcine IDO-derived 9-11mer peptide] | - (t1/2 (hours) is listed for each of the stably binding peptides (t1/2 ≥ 0.5 h)) | – | – |
| LPRNIAIPY [IDO70, porcine IDO-derived 9-11mer peptide] | 1.0 h | x | – |
| NPLLSEGLLY [IDO88, porcine IDO-derived 9-11mer peptide] | 24.0 h | x | – |
| YPDTDVILM [RhoC58, porcine RhoC-derived 9-11mer peptide] | 1.2 h | x | – |
| DMANRISAFGY [RhoC8, porcine RhoC-derived 9-11mer peptide] | - (t1/2 (hours) is listed for each of the stably binding peptides (t1/2 ≥ 0.5 h)) | x | Binder (t1/2 ≥ 0.5 h): half-life of peptide-SLA-2*04:01 complex (SLA-2*04:01): 1.1 h |
| FLQEMRTYM [IDO24, porcine IDO-derived 9-11mer peptide] | - (t1/2 (hours) is listed for each of the stably binding peptides (t1/2 ≥ 0.5 h)) | – | – |
| FPGGDCGKGFF [IDO30, porcine IDO-derived 9-11mer peptide] | - (t1/2 (hours) is listed for each of the stably binding peptides (t1/2 ≥ 0.5 h)) | – | – |
| RPLSYPDTDV [RhoC46, porcine RhoC-derived 9-11mer peptide] | - (t1/2 (hours) is listed for each of the stably binding peptides (t1/2 ≥ 0.5 h)) | – | – |
| LVLGYITMAY [IDO73, porcine IDO-derived 9-11mer peptide] | 4.0 h | – | Binder (t1/2 ≥ 0.5 h): half-life of peptide-SLA-2*04:01 complex (SLA-2*04:01): 0.8 h |
| EPVRSEEGRDM [RhoC20, porcine RhoC-derived 9-11mer peptide] | 0.5 h | – | – |
| SLRNYHLQI [IDO118, porcine IDO-derived 9-11mer peptide] | – | – | Binder (t1/2 ≥ 0.5 h): half-life of peptide-SLA-2*05:02 complex (SLA-2*05:02): - (t1/2 (hours) is listed for each of the stably binding peptides (t1/2 ≥ 0.5 h)); Binder (t1/2 ≥ 0.5 h): half-life of peptide-SLA-3*04:01 complex (SLA-3*04:01): - (t1/2 (hours) is listed for each of the stably binding peptides (t1/2 ≥ 0.5 h)) |
| PPAHRNFLHSL [IDO98, porcine IDO-derived 9-11mer peptide] | 0.7 h | x | – |
| HLVLGYITM [IDO40, porcine IDO-derived 9-11mer peptide] | - (t1/2 (hours) is listed for each of the stably binding peptides (t1/2 ≥ 0.5 h)) | – | – |
| DPSGPMTYKNM [IDO12, porcine IDO-derived 9-11mer peptide] | 0.5 h | x | – |
| EVYVPTVFENY [RhoC25, porcine RhoC-derived 9-11mer peptide] | 4.4 h | – | Binder (t1/2 ≥ 0.5 h): half-life of peptide-SLA-2*04:01 complex (SLA-2*04:01): 0.6 h |
| NPLEELPHPY [IDO86, porcine IDO-derived 9-11mer peptide] | 5.2 h | – | – |
| PPILVYADCV [IDO99, porcine IDO-derived 9-11mer peptide] | 3.5 h | x | – |
| MTYKNMDIL [IDO80, porcine IDO-derived 9-11mer peptide] | – | – | Binder (t1/2 ≥ 0.5 h): half-life of peptide-SLA-2*05:02 complex (SLA-2*05:02): - (t1/2 (hours) is listed for each of the stably binding peptides (t1/2 ≥ 0.5 h)); Binder (t1/2 ≥ 0.5 h): half-life of peptide-SLA-3*04:01 complex (SLA-3*04:01): - (t1/2 (hours) is listed for each of the stably binding peptides (t1/2 ≥ 0.5 h)); Binder (t1/2 ≥ 0.5 h): half-life of peptide-SLA-2*04:01 complex (SLA-2*04:01): - (t1/2 (hours) is listed for each of the stably binding peptides (t1/2 ≥ 0.5 h)) |
